Data taken from EP0801071A1, “LEWIS X DERIVATIVE AND PROCESS FOR PRODUCING THE SAME” (SUMITOMO PHARMACEUTICALS COMPANY, LIMITED, priority 1994, dated 1996).

Experiments:
[1] = system: adhesion of HUVEC to neutrophils; test: Inhibition of adhesion of neutrophils (treated with anti-CD18 antibody) to IL-1β-stimulated HUVEC (Experiment 1); format: cell-based, human; conditions: at a concentration of 0.05-0.5mM; wells without compound = 100%
Experimental: To each well of a 96 well plate was added a PBS solution containing 0.1% gelatine at 50 µl/well, and after 15 minutes at room temperature, the solution was removed with a Pasteur pipette. On the coated 96 well plate, human umbilical vein endothelial cells (HUVEC, 5th generation) were cultured until confluent. The culture medium was removed with a Pasteur pipette and the MEM medium containing 45 U/ml of IL-1β was added at 100 µl/well, and incubated for 4 hours. On the same plate, wells containing the MEM medium without IL-1β were prepared and similarly incubated for 4 hours.
Blood was collected from a healthy human using heparin as an anticoagulant. In a 50 ml-tube was placed 15 ml of neutrophil·monocyte fraction, and 25 ml of whole blood was gently layered. The brake function was released and centrifuged at 1700 rpm for 30 minutes at room temperature, and the neutrophil layer was collected and transferred into a 50 ml tube containing 30 ml of HBSS solution. The brake function was recovered and centrifuged at 3000 rpm for 3 minutes at room temperature, the supernatant was removed, and 30 ml of HBSS was added for resuspension. This procedure was repeated twice. The neutrophils were counted using hemocytometer, adjusted to 5×10^6 cells/ml with the HBSS solution, charged in a 15 ml tube, mixed with anti-CD18 antibody at final concentration of 10 µg/ml, and incubated for 1 hour with occasional gentle swirling.
MEM medium was removed from the HUVEC plate with a Pasteur pipette, a compound of the present invention diluted with MEM medium at 50 µl/well was added, and incubated for 20 minutes.
The neutrophils treated with anti-CD18 antibody were added to the HUVEC plate at 25 µl/well, and incubated for 5 minutes. […]
The OD490 of each well was determined, and the OD490 value of wells containing MEM medium without IL-1β was subtracted from that of each well. The value found in wells containing none of the compounds of the present invention was set to be 100% and the […] of the compound of the invention was assessed as shown in Figure 1. […]

rsE-selectin = target: T1, rsE-selectin (Homo sapiens, UniProt P16581); test: Inhibition of adhesion of HL-60 cells to plate-coated rsE-selectin (Experiment 2); format: cell-based; conditions: 50% inhibition concentration of adhesion of rsE-selectin to HL-60, from inhibition curves; medium-only well = 100%
T1 sequence (P16581 22-556 limits assumed): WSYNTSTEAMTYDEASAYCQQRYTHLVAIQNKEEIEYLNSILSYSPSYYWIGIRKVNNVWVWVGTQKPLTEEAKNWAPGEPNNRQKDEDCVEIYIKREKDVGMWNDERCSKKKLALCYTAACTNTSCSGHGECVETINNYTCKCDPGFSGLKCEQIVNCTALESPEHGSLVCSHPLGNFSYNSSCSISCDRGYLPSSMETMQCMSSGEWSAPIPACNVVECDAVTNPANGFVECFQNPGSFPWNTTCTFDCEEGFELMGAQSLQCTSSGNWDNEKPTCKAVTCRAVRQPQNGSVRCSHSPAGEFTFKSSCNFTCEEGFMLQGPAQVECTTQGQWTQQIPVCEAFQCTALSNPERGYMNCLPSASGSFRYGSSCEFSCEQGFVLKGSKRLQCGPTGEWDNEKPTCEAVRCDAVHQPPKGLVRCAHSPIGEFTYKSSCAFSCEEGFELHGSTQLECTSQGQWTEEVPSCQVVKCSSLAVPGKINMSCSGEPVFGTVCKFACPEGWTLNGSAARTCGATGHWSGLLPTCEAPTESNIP
Experimental: The DPBS solution containing rsE-selectin (3 µg/ml) was added to a 96 well plate at 50 µl/well, while wells filled with DPBS without rsE-selectin (non-specific adhesion control) were prepared on the same plate, and the plate was kept at room temperature for 3 hours. Then wells were washed 3 times with a DPBS/BSA solution at 200 µl/well, and DPBS/BSA solution was added at 200 µl/well, and the plate was kept at room temperature for 1 hour. After removing DPBS/BSA solution, a medium containing NWB or NWB plus a compound of the invention was added at 40 µl/well.
Frozen HL-60 cells were thawed promptly at 37°C, and washed with NWB cooled to 4°C 3 times by centrifugation at 1500rpm × 5 min. The cells were adjusted with NWB to 1×10^7 cells/ml, added to the plate at 20 µl/well, and the plate was kept at room temperature for 15 min.
The plate was set on a plate washer to remove nonadhesive HL-60 cells. The plate washer was set at slow mode, cycle 3 (washing 3 times), soak 0 sec., 12 rows (along vertical direction), and volume of NWB for 1 washing 200 µl/well at room temperature.
A citrate solution containing 0.1% NP-40 at room temperature was added at 50 µl/well, and the plate was kept at room temperature for 5 minutes. The substrate solution (4 mg OPDA, 4µl 30% H2O2/4 ml citrate) was added at 50 µl/well, protected from light with aluminum foil, allowed to develop color for 5 to 20 minutes, and the reaction was terminated by adding 4N-H2SO4 at 50µl/well. The substrate solution was used within 30 minutes after preparation.
The OD490 of each well was determined, and the OD490 value of the well for nonspecific adhesion was subtracted from the value of each well. The value found in a well containing only the medium was used as a control (100%) and the amount of adhesion in wells containing Compounds (15), (31), (33)-(40) or (41) of the invention was calculated by percent in terms of the values of the control. By drawing inhibition curves, 50% inhibition concentration (IC50) was determined.
The materials for the experiment were obtained from the following sources. rsE-selectin: producible by the method described in J. C. Poulson, J. Am. Chem. Soc., 117: 66-79 (1995). The sample of rsE-selectin used in the experiments was kindly supplied by the author. HL-60 : ATCC Corp. DPBS (Dulbecco Phosphate Buffered Saline) : GIBCO Corp. BSA (Bovine Serum Albumin) : Sigma Corp. HBSS (Hanks Balanced Salt Solution) : GIBCO Corp. OPDA (Ortho-phenylenediamine) : Sigma Corp. RPMI 1640 medium : GIBCO Corp. Bovine Fetal Serum : GIBCO Corp. Plate : Immulon. 2. (flat bottomed) : Dynatech Laboratories. Plate washer; Microplate Washer : Molecular Devices Corp.
A compound of the present invention was adjusted to 100mM with DPBS, and pH was adjusted to 7.1-7.4.
HL-60 was cultured in RPMI 1640 medium supplemented with 10% Bovine Fetal Serum. Using a cell freezing solution consisting of 80% RPMI 1640 medium + 10% Bovine Fetal Serum + 10% DMSO, HL-60 was frozen at 1.5 × 10^7 cells per a tube according to a conventional method, and stocked at -80°C. This was used under sterile condition.
Composition of DPBS/BSA was DPBS + 1% BSA.
Composition of NWB was HBSS + 10mM-HEPES + 0.2%glucose + 1%BSA+ 1mM-CaCl2. These two solutions are prepared under sterile condition.
The citrate solution was prepared by dissolving 2.33 g of citric acid and 9.20 g of Na2HPO4·12H2O in 500 ml of desalted water.

| SMILES | inhibited the adhesion of HUVEC to neutrophils [1] [%] | IC50 (rsE-selectin) [µM] |
| --- | --- | --- |
| CCOCCOCCO[C@@H]1O[C@H](CO)[C@@H](O[C@@H]2O[C@H](CO)[C@H](O)[C@H](O[C@]3(C(=O)O)C[C@H](O)[C@@H](NC(C)=O)[C@H]([C@H](O)[C@H](O)CO)O3)[C@H]2O)[C@H](O[C@@H]2O[C@@H](C)[C@@H](O)[C@@H](O)[C@@H]2O)[C@H]1NC(=O)c1ccc2ccccc2c1 [Compound 31, 2-(2-Ethoxyethoxy)ethyl (5-acetamido-3,5-dideoxy-α-D-glycero-D-galacto-2-nonulopyranosylonic acid)-(2→3)-O-(β-D-galactopyranosyl)-(1→4)-O-[α-L-fucopyranosyl-(1→3)-O]-(2-deoxy-2-naphthamido-β-D-glucopyranoside)] | ≥ 50 | 110 |
| CC(=O)N[C@H]1[C@H]([C@H](O)[C@H](O)CO)O[C@@](O[C@H]2[C@@H](O)[C@@H](CO)O[C@@H](O[C@H]3[C@H](O[C@@H]4O[C@@H](C)[C@@H](O)[C@@H](O)[C@@H]4O)[C@@H](NC(=O)c4ccc5ccccc5c4)[C@H](OCCCCCCCCCO)O[C@@H]3CO)[C@@H]2O)(C(=O)O)C[C@@H]1O [Compound 35, 9-Hydroxynonyl (5-acetamido-3,5-dideoxy-α-D-glycero-D-galacto-2-nonulopyranosylonic acid)-(2→3)-O-(β-D-galactopyranosyl)-(1→4)-O-[α-L-fucopyranosyl-(1→3)-O ]-(2-deoxy-2-naphthamido-β-D-glucopyranoside)] | ≥ 50 | 50 |
| COc1cc(CO[C@@H]2O[C@H](CO)[C@@H](O[C@@H]3O[C@H](CO)[C@H](O)[C@H](O[C@]4(C(=O)O)C[C@H](O)[C@@H](NC(C)=O)[C@H]([C@H](O)[C@H](O)CO)O4)[C@H]3O)[C@H](O[C@@H]3O[C@@H](C)[C@@H](O)[C@@H](O)[C@@H]3O)[C@H]2NC(=O)c2ccc3ccccc3c2)cc(OC)c1OC [Compound 15, 3,4,5-trimethoxybenzyl (5-acetamido-3,5-dideoxy-α-D-glycero-D-galacto-2-nonulopyra nosylonic acid)-(2→3)-O-(β-D-galacto-pyranosyl)-(1→4)-O-[α-L-fucopyranosyl-(1→3)-O]-(2-deoxy-2-naphthamido-β-D-glucopyranoside)] | ≥ 50 | 110 |
